# In US20240208954A1, “OXADIAZOLE COMPOUND, PREPARATION METHOD THEREFOR, PHARMACEUTICAL COMPOSITION AND USE THEREOF” (SHANGHAI INSTITUTE OF MATERIA MEDICA, CHINESE ACADEMY OF …, priority 2020, published 2024):
# Entries after “also recorded” stand apart in the source; their conditions may differ.
# Tested on: GAN diet-induced NASH mouse model
# Assay: In vivo anti-obesity, insulin resistance, NASH pharmacological activity test
# Parameters: species or system C57BL/6 mice
# Description: In this experiment, we investigated the effects of long-term oral administration of compound A1 on obesity, insulin resistance, hepatic lipid accumulation, inflammation and fibrosis in mice with a triple phenotype of obesity, insulin resistance and NASH induced by high fat, high cholesterol and high fructose (Gubra amylin, GAN).
# Animal experiment: Male C57BL/6 mice were fed with GAN diet to induce the NASH model, and 12 weeks after modeling, the mice were randomly divided into 3 groups: low-fat diet control group (LFD, n=6), model control group (Model, n=10), and A1 group (10 mg/kg, n=10), and administered by gavage at a dose of 10 mg/kg and a volume of 10 mL/kg, once a day. During the period of administration, the food intake and body weight of animals were monitored; after 10 weeks of administration, glucose tolerance test (GTT) and insulin tolerance test (ITT) were performed; after 11 weeks of administration, fasting glucose and insulin were measured; after 12 weeks of administration, core body temperature and energy metabolism were measured; after 15 weeks of administration, body composition of mice was measured, and mice were sacrificed by dislocation after blood sampling via the posterior ocular venous plexus, and liver, subcutaneous fat, epididymal fat and brown fat were weighed, part the liver was fixed in 4% paraformaldehyde, and all tissues and serum were stored at −80° C. This experiment evaluated whether the compounds have the effect of weight loss by detecting energy metabolism, body composition, and fat weight of mice; whether the compounds have the effect of improving insulin resistance by GTT, ITT, detecting random blood glucose, fasting blood glucose and fasting insulin, and calculating HOMA-IR index; whether the compounds have the effect of […] by detecting serum liver function indexes ALT, AST, triglyceride, total cholesterol (T-CHO), LDL-C, HDL-C levels in serum, triglyceride, T-CHO, and hydroxyproline (characteristic amino acids of collagen) levels in liver, and by measuring mRNA expression levels of fatty acid ab initio synthesis and transport related genes (Srebp1c, Sed1, Fasn, Acaca, Cd36),β-oxidative metabolic pathways (Ppara, Cyp4A1,Cpt1b,Acot1,Acox1), inflammation related genes (Tnfa, Il1b, Casp1, Nlrp3, Pycard, Panx1, Cel2, Cel3) and fibrosis-related genes (Asma, Tgfb, Col1A1, Col3A1 , Col4A1 , Col4a2, Col5a2) and liver pathological changes (H&E staining, Oil Red O staining and Sirius Scarlet staining) and other indicators to evaluate whether the compounds have the effect of alleviating the disorder of lipid metabolism, inflammation and fibrosis in the pathological state of NASH.
# [1] = 10 mg/kg gavage once a day, 15 weeks
# [2] = 10 mg/kg gavage once a day, after 10 weeks
# [3] = 10 mg/kg gavage once a day, after 11 weeks
# [4] = 10 mg/kg gavage once a day, vs Model group
# [5] = H&E-stained liver pathology sections, 10 mg/kg
# [6] = liver, 10 mg/kg gavage once a day
# [7] = overall statement, long-term administration
compound,measurement,setting,value
"CC(C)Oc1ccc(-c2nc(-c3ccc(CN4CC(C(=O)O)C4)c4ccccc34)no2)cc1C#N.Cl [Compound A1, 1-((4-(5-(3-cyano-4-isopropoxyphenyl)-1,2,4-oxadiazol-3-yl)naphthalen-1-yl)methyl) azetidine-3-carboxylic acid hydrochloric acid]",HOMA-IR index,10 mg/kg gavage once a day,significantly reduced
same,energy metabolism and thermogenesis,10 mg/kg gavage once a day,increasing energy metabolism and promoting thermogenesis
same,food intake,10 mg/kg gavage once a day,without affecting
same,liver T-CHO,[1],significantly reduced
same,liver hydroxyproline,[1],significantly reduced
same,liver triglycerides,[1],significantly reduced
same,liver weight,[1],significantly reduced
same,liver-to-body ratio,[1],significantly reduced
same,serum ALT,[1],significantly reduced
same,serum AST,[1],significantly reduced
same,serum HDL-C,[1],significantly reduced
same,serum LDL-C,[1],significantly reduced
same,serum T-CHO,[1],significantly reduced
same,serum triglycerides,[1],significantly reduced
same,glucose tolerance (GTT),[2],significantly improved
same,insulin sensitivity (ITT),[2],significantly improved
same,fasting glucose,[3],significantly reduced
same,fasting insulin,[3],significantly reduced
same,body fat content,[4],reduced
same,body weight gain,[4],significantly slowed down
same,NAS scores,[5],significantly decreased
same,lipid accumulation in the liver,[5],ameliorating (but not significant) effect
same,liver ballooning degeneration and inflammation,[5],significantly alleviated
same,liver lipid accumulation,"Oil Red O stained sections, mainly by reducing lipid droplet size, 10 mg/kg",significantly reduced
same,liver collagen deposition,"Sirius Scarlet stained sections, 10 mg/kg",significantly reduced
same,"mRNA expression of fatty acid oxidation-related genes (Ppara, Cyp4A1, Acot1, Acox1)",[6],significantly upregulated
same,"mRNA expression of fibrosis-related genes (Asma, Tgfb, Col1A1, Col3A1, Col5a2)",[6],downregulated
same,"mRNA expression of inflammation genes (Tnfa, Il1b, Casp1, Pycard, Ccl2, Ccl3)",[6],downregulated
same,serological and hepatic biochemical indexes,"overall statement, FIG. 3",improved
same,"hepatic lipid metabolism disorders, inflammation and fibrosis","overall statement, FIG. 4",improved
same,effect on NASH,[7],significant alleviating effect
same,insulin resistance (symptoms),[7],significantly alleviate; also recorded: alleviated
same,obesity (symptoms),[7],significantly alleviate; also recorded: alleviated
